Values of other authors, collected in patent US20100086592A1, “MODIFIED DOSAGE FORMS OF TACROLIMUS” (PANACEA BIOTEC LIMITED., priority 2007, published 2010).
Like-named read-outs stand apart in the source and are kept apart here.

Conditions: oral

absolute bioavailability (adult heart transplantation patients (N=11)): 23±9%
absolute bioavailability (adult liver transplant patients (N=17)): 22±6%
absolute bioavailability (healthy volunteers (N=16)): 18±5%
Structure (SMILES): C=CC[C@@H]1/C=C(\C)C[C@H](C)C[C@H](OC)[C@H]2O[C@@](O)(C(=O)C(=O)N3CCCC[C@H]3C(=O)O[C@H](/C(C)=C/[C@@H]3CC[C@@H](O)[C@H](OC)C3)[C@H](C)[C@@H](O)CC1=O)[C@H](C)C[C@@H]2OC [tacrolimus, Tacrolimus]
